The results in this text go back to ChEMBL document CHEMBL3132771, “Machine-assisted synthesis of modulators of the histone reader BRD9 using flow methods of chemistry and frontal affinity chromatography” (Medchemcomm, 2014).

pKd: −log10 of the molar value. Active and inactive are the calls of the source. The rule behind the calls is not given here.

The target of experiment [1] is T1, Transcription intermediary factor 1-alpha (Homo sapiens) (UniProt O15164).
T1 sequence (whole entry): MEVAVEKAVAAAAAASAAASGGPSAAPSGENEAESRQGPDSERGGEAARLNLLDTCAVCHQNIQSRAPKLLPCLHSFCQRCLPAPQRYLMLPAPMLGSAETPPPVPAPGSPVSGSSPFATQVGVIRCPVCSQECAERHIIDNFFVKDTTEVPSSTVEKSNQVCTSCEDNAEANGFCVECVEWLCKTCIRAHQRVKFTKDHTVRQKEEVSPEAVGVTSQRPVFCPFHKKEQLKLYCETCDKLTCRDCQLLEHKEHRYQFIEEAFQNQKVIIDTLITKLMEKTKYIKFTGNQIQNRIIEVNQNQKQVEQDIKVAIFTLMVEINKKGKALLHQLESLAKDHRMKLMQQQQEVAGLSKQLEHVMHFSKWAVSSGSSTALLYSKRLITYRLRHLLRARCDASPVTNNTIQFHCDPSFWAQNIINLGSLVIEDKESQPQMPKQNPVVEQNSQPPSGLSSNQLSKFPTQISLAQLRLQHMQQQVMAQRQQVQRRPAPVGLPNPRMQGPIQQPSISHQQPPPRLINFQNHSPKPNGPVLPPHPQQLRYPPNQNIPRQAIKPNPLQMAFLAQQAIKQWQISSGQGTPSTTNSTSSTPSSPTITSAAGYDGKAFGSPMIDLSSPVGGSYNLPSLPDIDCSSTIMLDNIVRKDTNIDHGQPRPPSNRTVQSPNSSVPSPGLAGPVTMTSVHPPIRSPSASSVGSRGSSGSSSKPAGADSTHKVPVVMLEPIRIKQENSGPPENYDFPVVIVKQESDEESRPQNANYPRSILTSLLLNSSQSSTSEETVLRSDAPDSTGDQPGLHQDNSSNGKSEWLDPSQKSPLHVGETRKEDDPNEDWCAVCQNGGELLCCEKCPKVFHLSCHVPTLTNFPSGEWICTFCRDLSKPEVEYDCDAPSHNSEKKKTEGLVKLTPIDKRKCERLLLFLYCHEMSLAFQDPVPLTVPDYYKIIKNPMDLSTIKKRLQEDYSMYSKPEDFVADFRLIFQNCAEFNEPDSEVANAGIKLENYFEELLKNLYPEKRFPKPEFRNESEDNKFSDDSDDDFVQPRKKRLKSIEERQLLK
Put plainly: Binding affinity to TIF1 (unknown origin) at 4 uM by thermal shift assay.

The species entered for experiment [2] is Homo sapiens. Put plainly: Binding affinity to EP300A (unknown origin) at 4 uM by thermal shift assay.
The target of experiment [3] is CREB-binding protein (Homo sapiens) (UniProt Q92793). Put plainly: Binding affinity to CREBBP (unknown origin) at 4 uM by thermal shift assay.
Chain of CREB-binding protein (Homo sapiens) (Q92793 2-2442 limits assumed): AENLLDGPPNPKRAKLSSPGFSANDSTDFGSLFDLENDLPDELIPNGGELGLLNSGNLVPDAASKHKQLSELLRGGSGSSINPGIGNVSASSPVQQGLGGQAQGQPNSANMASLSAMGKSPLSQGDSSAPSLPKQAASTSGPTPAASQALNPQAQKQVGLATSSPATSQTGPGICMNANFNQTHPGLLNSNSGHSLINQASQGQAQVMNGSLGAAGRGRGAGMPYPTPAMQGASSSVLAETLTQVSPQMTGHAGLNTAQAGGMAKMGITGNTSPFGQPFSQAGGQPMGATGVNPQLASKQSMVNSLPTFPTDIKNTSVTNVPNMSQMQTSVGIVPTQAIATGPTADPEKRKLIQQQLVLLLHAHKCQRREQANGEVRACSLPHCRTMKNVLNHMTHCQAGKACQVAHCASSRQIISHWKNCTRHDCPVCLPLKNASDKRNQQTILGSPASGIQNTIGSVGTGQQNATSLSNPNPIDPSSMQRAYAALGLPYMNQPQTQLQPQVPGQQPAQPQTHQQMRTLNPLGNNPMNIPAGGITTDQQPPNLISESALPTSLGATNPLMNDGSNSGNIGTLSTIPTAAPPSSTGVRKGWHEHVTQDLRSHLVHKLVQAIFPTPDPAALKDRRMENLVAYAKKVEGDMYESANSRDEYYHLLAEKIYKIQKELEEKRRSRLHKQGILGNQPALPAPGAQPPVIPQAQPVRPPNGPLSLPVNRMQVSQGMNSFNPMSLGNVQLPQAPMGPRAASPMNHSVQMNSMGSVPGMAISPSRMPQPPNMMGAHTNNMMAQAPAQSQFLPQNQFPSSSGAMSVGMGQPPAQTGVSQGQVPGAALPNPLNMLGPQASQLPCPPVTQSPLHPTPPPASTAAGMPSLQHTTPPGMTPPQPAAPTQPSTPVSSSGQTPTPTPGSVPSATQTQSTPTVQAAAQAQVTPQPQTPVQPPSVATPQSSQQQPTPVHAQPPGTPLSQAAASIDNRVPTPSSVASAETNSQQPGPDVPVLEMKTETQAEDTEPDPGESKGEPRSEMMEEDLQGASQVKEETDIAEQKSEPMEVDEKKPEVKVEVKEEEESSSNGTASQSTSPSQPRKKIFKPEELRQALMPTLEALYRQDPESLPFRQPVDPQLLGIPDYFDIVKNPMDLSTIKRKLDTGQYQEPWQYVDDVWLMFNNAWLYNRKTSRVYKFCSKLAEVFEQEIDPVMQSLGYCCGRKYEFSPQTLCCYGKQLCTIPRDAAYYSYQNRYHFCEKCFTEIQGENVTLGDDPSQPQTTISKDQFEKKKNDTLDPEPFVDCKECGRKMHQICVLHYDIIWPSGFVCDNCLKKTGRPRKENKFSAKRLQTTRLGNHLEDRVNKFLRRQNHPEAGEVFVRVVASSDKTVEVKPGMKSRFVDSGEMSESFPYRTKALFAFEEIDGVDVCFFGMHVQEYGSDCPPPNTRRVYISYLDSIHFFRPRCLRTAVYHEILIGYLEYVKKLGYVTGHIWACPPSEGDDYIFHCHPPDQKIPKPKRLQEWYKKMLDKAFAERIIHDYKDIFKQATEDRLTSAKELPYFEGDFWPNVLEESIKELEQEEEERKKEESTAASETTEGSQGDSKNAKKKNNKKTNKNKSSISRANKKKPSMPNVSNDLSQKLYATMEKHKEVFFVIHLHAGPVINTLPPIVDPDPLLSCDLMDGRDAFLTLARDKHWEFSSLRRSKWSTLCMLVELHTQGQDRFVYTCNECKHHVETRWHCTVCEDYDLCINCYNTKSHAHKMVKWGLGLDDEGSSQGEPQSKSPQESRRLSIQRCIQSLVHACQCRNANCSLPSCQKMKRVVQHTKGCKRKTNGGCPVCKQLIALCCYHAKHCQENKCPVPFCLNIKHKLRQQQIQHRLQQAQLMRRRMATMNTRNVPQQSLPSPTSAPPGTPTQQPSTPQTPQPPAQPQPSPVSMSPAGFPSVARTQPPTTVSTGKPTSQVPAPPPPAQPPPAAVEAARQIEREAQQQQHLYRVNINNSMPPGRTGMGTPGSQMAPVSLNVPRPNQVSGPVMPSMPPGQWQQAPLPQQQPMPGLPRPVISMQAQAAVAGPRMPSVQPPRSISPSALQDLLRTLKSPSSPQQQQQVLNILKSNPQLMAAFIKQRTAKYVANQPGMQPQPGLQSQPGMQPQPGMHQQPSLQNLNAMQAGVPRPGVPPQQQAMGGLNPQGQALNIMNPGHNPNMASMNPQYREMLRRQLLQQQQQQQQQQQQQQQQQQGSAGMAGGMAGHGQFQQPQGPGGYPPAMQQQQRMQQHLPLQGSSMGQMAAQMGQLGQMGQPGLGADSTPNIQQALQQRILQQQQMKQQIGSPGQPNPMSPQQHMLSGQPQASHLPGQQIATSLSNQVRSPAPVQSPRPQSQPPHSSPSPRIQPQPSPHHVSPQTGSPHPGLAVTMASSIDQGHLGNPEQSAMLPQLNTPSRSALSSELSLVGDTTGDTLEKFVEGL
Experiment [4] has as its target T2, Bromodomain and PHD finger-containing protein 3 (Homo sapiens) (UniProt Q9ULD4).
T2 sequence (whole entry): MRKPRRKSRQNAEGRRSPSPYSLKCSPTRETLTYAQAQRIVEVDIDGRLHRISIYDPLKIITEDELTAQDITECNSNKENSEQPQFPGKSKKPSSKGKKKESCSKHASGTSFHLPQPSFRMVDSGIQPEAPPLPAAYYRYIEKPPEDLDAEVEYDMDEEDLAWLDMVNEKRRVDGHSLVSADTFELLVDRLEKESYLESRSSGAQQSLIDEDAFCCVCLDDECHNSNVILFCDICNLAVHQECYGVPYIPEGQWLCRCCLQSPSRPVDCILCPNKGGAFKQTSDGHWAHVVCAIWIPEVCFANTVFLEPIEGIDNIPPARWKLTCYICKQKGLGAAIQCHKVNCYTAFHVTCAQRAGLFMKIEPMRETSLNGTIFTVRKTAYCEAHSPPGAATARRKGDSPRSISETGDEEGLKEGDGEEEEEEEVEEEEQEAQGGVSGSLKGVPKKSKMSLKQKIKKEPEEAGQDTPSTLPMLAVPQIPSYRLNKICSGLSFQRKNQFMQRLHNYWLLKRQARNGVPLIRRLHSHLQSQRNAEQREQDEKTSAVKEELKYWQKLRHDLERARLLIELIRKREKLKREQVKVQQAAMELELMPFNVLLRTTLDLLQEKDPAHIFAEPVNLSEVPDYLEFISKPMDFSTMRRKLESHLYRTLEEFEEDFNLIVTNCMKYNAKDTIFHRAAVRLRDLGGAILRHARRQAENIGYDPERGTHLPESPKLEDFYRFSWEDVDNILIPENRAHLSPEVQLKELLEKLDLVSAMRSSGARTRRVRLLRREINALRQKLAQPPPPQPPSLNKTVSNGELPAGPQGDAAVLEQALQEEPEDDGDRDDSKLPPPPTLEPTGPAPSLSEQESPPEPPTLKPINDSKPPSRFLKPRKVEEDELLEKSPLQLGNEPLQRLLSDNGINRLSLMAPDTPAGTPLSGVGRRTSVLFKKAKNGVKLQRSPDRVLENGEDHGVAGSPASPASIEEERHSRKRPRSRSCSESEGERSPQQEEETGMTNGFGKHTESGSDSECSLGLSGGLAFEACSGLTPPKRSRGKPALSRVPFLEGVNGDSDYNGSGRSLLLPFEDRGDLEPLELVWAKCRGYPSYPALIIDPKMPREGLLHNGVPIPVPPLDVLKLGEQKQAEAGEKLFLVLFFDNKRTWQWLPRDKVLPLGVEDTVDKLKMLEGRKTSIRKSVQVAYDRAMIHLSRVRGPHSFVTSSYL
Put plainly: Binding affinity to BRPF3 (unknown origin) at 4 uM by thermal shift assay.

Experiment [5] has as its target Chromatin remodeling regulator CECR2 (Homo sapiens) (UniProt Q9BXF3). Put plainly: Binding affinity to CECR2 (unknown origin) at 4 uM by thermal shift assay.
The target of the next experiment is T3, Peregrin (Homo sapiens) (UniProt P55201).
T3 sequence (whole entry): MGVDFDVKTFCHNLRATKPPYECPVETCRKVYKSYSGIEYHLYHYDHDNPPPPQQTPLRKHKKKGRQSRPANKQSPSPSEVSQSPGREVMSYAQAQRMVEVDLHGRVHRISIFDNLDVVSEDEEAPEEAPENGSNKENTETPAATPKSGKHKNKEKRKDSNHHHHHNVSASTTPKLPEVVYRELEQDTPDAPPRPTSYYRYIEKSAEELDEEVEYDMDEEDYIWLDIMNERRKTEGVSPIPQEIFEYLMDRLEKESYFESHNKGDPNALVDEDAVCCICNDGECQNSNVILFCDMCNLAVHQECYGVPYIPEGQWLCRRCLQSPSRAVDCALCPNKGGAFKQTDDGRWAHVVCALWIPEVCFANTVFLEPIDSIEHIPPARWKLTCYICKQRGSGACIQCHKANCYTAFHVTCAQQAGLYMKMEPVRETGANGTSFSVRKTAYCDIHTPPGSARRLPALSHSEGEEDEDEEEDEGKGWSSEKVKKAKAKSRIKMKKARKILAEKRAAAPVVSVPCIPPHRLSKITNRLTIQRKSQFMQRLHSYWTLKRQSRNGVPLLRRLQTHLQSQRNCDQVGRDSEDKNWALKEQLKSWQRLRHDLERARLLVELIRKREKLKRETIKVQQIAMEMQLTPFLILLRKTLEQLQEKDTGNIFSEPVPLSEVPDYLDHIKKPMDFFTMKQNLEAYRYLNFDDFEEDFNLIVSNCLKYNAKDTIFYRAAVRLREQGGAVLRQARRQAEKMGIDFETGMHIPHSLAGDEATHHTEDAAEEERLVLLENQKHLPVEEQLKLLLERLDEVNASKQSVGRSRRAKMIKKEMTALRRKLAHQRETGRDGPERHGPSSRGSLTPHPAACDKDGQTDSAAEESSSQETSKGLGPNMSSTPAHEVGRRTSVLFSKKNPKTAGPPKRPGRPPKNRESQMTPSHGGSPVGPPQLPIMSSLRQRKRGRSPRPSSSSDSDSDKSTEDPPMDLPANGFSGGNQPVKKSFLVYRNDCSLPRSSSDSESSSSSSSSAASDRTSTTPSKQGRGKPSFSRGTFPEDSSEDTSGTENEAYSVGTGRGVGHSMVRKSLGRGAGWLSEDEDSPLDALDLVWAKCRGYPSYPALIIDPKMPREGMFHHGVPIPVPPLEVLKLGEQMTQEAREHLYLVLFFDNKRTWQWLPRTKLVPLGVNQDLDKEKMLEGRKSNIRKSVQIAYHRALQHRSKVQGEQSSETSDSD
Put plainly: Binding affinity to BRPF1 (unknown origin) at 4 uM by thermal shift assay.

Experiment [6] deals with T4, Bromodomain-containing protein 9 (Homo sapiens) (UniProt Q9H8M2).
T4 sequence (whole entry): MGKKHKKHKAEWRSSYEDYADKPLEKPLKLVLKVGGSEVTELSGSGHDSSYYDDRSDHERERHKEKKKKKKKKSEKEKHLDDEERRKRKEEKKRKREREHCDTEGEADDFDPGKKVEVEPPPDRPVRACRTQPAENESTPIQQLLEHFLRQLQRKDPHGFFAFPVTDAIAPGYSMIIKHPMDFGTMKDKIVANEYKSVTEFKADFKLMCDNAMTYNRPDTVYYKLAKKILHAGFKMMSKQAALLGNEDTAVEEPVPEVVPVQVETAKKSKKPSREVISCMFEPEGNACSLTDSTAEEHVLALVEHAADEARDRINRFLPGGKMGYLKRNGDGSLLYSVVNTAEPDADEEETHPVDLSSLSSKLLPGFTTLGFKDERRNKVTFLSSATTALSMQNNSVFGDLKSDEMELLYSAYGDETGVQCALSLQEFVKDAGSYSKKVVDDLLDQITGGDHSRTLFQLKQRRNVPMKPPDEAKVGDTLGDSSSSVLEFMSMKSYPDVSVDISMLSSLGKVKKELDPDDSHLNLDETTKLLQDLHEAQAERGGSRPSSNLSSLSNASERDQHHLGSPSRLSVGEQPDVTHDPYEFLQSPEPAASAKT
Put plainly: Binding affinity to human recombinant biotinylated BRD9 assessed as change in melting temperature at 4 uM by thermal shift assay.

Experiment [7] deals with T4, Bromodomain-containing protein 9 (Homo sapiens). Put plainly: Binding affinity to human recombinant biotinylated BRD9 by UV spectrophotometric analysis.
For experiment [8], the species on record is Homo sapiens. Put plainly: Binding affinity to BRD1A (unknown origin) at 4 uM by thermal shift assay.
For experiment [9], the target named is Bromodomain-containing protein 4 (Homo sapiens) (UniProt O60885). Put plainly: Binding affinity to BRD4 (unknown origin) at 4 uM by thermal shift assay.
Experiment [10] deals with T4, Bromodomain-containing protein 9 (Homo sapiens). Put plainly: Binding affinity to human recombinant biotinylated BRD9 assessed as retention volume at 4 uM by FAC-MS analysis.
For experiment [11] the target is unchanged. Put plainly: Binding affinity to human recombinant biotinylated BRD9 at 4 uM after 120 mins by FAC-MS analysis.
Experiment [12] has the same target. Put plainly: Binding affinity to human recombinant biotinylated BRD9 assessed as retention volume at 50 uM by FAC-MS analysis.
Experiment [13] concerns the target T5, Bromodomain-containing protein 9 (Homo sapiens, UniProt Q9H8M2).
T5 sequence (Q9H8M2 whole entry): T4 sequence (whole entry)
Put plainly: Binding affinity to human recombinant biotinylated BRD9 compound treated in ammonium acetate buffer by FAC-MS analysis.

Experiment [14] deals with T5, Bromodomain-containing protein 9. Put plainly: Binding affinity to human recombinant biotinylated BRD9 compound treated in PBS buffer by FAC-MS analysis.

Chain of Chromatin remodeling regulator CECR2 (Homo sapiens) (Q9BXF3 whole entry, looked up): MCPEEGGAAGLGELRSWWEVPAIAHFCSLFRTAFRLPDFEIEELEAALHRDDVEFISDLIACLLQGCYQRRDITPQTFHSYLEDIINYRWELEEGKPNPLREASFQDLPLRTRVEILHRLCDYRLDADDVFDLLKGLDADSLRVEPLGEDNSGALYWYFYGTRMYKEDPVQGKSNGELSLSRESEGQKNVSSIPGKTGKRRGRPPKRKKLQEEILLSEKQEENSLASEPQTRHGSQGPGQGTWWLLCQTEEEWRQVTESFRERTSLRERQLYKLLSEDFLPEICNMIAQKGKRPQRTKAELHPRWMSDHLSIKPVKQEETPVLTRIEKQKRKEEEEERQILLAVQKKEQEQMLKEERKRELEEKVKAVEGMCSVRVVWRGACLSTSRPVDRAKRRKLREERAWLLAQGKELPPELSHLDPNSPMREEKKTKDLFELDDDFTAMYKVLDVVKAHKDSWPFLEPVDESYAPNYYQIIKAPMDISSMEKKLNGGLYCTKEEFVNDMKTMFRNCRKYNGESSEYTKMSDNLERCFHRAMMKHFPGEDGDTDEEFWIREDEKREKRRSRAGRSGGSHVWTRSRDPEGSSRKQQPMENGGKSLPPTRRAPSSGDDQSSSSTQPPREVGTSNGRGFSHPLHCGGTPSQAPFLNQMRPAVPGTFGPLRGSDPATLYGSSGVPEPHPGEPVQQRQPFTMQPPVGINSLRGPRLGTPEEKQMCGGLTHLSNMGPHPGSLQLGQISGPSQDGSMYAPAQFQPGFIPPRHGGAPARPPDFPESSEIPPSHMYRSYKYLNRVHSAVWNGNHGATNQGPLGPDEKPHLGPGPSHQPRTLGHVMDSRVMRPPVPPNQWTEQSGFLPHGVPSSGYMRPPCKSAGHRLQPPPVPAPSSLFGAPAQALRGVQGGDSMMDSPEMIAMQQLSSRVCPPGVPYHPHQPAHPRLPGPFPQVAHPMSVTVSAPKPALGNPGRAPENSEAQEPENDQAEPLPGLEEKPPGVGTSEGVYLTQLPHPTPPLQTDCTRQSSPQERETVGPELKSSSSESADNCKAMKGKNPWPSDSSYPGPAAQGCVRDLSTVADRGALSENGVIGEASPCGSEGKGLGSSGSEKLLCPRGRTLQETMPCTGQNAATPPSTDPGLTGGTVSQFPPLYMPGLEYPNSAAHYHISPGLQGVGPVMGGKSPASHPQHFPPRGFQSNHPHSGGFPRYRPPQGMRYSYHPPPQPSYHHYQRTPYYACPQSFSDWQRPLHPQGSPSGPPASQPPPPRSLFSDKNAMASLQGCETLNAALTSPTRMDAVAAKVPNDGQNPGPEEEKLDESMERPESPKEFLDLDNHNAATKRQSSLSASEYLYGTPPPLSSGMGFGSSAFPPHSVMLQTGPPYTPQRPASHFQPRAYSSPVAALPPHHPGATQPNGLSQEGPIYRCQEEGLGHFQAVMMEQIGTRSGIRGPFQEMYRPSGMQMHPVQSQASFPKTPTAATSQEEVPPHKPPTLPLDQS

Turning to `CCOC(=O)N(c1cc(-c2cc(N)c3nnc(C)n3n2)ccc1C)S(=O)(=O)c1ccc(Cl)cc1`, the result (in experiment [1]; in the experiment listed under Homo sapiens [2]; in experiment [3]; in experiment [4]; in experiment [5]; at Peregrin (Homo sapiens)) was inactive. The result (in the experiment filed under Homo sapiens [8]; in experiment [9]) was inactive. Further, in experiment [6], the shift in melting temperature (ΔTm) came to 2.7 °C. The result in experiment [7] was Active. Also, in experiment [10], the Activity is 947 µL.
On to `FC(F)(F)c1nnc2ccc(-c3ccccc3)nn12`, for which the outcome (in [1]; in the experiment listed under Homo sapiens [2]; in experiment [3]; in [4]; in experiment [5]; on Peregrin (Homo sapiens)) was inactive. For the same molecule, the outcome (in the experiment listed under Homo sapiens [8]; in experiment [9]) was inactive. Further, in experiment [6], the ΔTm was -0.6 °C. Moreover, the result in [7] was Active. Also, the Activity in experiment [10] stood at 212 µL.
As for `COc1ccc(-c2ccc3nnc(C(F)(F)F)n3n2)cc1`, the result (in experiment [1]; in the experiment filed under Homo sapiens [2]; in experiment [3]; in [4]; in experiment [5]; at Peregrin (Homo sapiens)) was inactive. Moreover, the outcome (in the experiment filed under Homo sapiens [8]; in [9]) was inactive. Moreover, in experiment [6], the thermal shift (ΔTm) came to 0.6 °C. The result in experiment [7] was Active. Further, the Activity in experiment [10] stood at 270 µL.
`CCOC(=O)N(c1cc(-c2cc(N)c3nnc(C)n3n2)ccc1C)S(=O)(=O)c1ccccc1Cl`: the outcome in [7] was Active.
The same measure, in the same setting: under `Cc1ccc(-c2cc(N)c3nnc(C)n3n2)cc1NS(=O)(=O)c1cccc(Cl)c1` stands “Active”.
Regarding `CCOC(=O)Nc1cc(-c2ccc(C)c(NS(C)(=O)=O)c2)nn2c(C)nnc12`, the ΔTm in experiment [6] came out at 8.8 °C. For the same molecule, the result in [11] was inactive. The Activity in [12] was 324 µL; in experiment [10], above 3600 µL.
With `Cc1nnc2c(N)cc(Cl)nn12`, the result in experiment [7] was Active.
As for `Cc1ccc(-c2cc(N)c3nnc(C)n3n2)cc1NS(=O)(=O)c1ccc(Cl)c(Cl)c1`, the outcome (in the experiment filed under Homo sapiens [2]; in experiment [7]; in [9]) was Active. The thermal shift (ΔTm) in experiment [6] came to 4.3 °C. For the same molecule, in experiment [10], the Activity turned out to be 1170 µL.
As for `Cc1ccc(-c2cc(N)c3nnc(C)n3n2)cc1NS(=O)(=O)c1ccccc1Cl`, the shift in melting temperature (ΔTm) in experiment [6] was 2.4 °C. Further, the outcome in experiment [7] and in experiment [9] was Active. Moreover, the Activity in experiment [10] is 784 µL.
Turning to `Cc1nnc2c(NC(=O)OC(C)(C)C)cc(-c3ccccc3)nn12`, the pKd in experiment [13] and in experiment [14] was 5.08 each time.

By ΔTm is commonly meant the shift of the melting midpoint relative to a reference. As usually defined, the pKd is −log10 of the Kd, conventionally taken in molar units.
